In US11162944B2, “Compositions and methods” (priority 2015, dated 2021):
Read-outs that look alike come from different tables or passages of the source. Marks after values point to notes of the source that are not given here.

System: biomarker (antibody) in serum samples from patients with symptoms of tuberculosis
Type: binding, human

CCCCCCCCCCCCCCCCCCCCCC[C@@H](C(=O)OC[C@H]1O[C@H](OC)[C@@H](O)[C@@H]1O)[C@H](O)CCCCCCCCCCCCCCCCC[C@@H]1C[C@@H]1CCCCCCCCCCCCCCCC[C@@H](OC)[C@@H](C)CCCCCCCCCCCCCCCCCC [Antigen A]
ELISA absorbance at 492 nm (serum sample 1 TB+): 0.28*
ELISA absorbance at 492 nm (serum sample 2 TB+): 0.29*
ELISA absorbance at 492 nm (serum sample 3 TB+): 0.30*
ELISA absorbance at 492 nm (serum sample 4 TB+): 0.50*
ELISA absorbance at 492 nm (serum sample 5 TB+): 0.28*
ELISA absorbance at 492 nm (serum sample 6 TB+): 0.28*
ELISA absorbance at 492 nm (serum sample 7 TB+): 0.93*
ELISA absorbance at 492 nm (serum sample 8 TB+): 0.47*
ELISA absorbance at 492 nm (serum sample 9 TB+): 0.29*
ELISA absorbance at 492 nm (serum sample 10 TB−): 0.21
ELISA absorbance at 492 nm (serum sample 11 TB−): 0.20
ELISA absorbance at 492 nm (serum sample 12 TB−): 0.18
ELISA absorbance at 492 nm (serum sample 13 TB−): 0.22
ELISA absorbance at 492 nm (serum sample 14 TB−): 0.49*
ELISA absorbance at 492 nm (serum sample 15 TB−): 0.23
ELISA absorbance at 492 nm (serum sample 16 TB−): 0.31*
ELISA absorbance at 492 nm (serum sample 17 TB−): 0.52*
ELISA absorbance at 492 nm (serum sample 18 TB−): 0.28*
ELISA absorbance at 492 nm (serum sample 19 TB−): 0.20
ELISA absorbance at 492 nm (serum sample 20 TB−): 0.34*
ELISA absorbance at 492 nm (serum sample 21 TB−): 0.47*
ELISA absorbance at 492 nm (serum sample 22 TB−): 0.23
ELISA absorbance at 492 nm (serum sample 23 TB−): 0.25
ELISA absorbance at 492 nm (serum sample 24 TB−): 0.29*
ELISA absorbance at 492 nm (serum sample 25 TB−): 0.18
ELISA absorbance at 492 nm (serum sample 26 TB−): 0.52*
ELISA absorbance at 492 nm (serum sample 27 TB−): 0.31*
ELISA absorbance at 492 nm (serum sample 28 TB−): 0.28*
ELISA absorbance at 492 nm (serum sample 29 TB−): 0.28*
ELISA absorbance at 492 nm (serum sample 30 TB−): 0.32*
ELISA absorbance at 492 nm (serum sample 31 TB−): 0.31*
ELISA absorbance at 492 nm (serum sample 32 TB−): 0.34*
ELISA absorbance at 492 nm (serum sample 33 TB−): 0.18
ELISA absorbance at 492 nm (serum sample 34 TB−): 0.39*
ELISA absorbance at 492 nm (serum sample 35 TB−): 0.23
ELISA absorbance at 492 nm (serum sample 36 TB−): 0.11
ELISA absorbance at 492 nm (serum sample 37 TB−): 0.28*
ELISA absorbance at 492 nm (serum sample 38 TB−): 0.29*
ELISA absorbance at 492 nm (serum sample 39 TB−): 0.21
ELISA absorbance at 492 nm (serum sample 40 TB−): 0.18
ELISA absorbance at 492 nm (serum sample 41 TB−): 0.18
ELISA absorbance at 492 nm (serum sample 42 TB−): 0.30*
ELISA absorbance at 492 nm (serum sample 43 TB−): 0.25
ELISA absorbance at 492 nm (serum sample 44 TB−): 0.41*
ELISA absorbance at 492 nm (serum sample 45 TB−): 0.33*
ELISA absorbance at 492 nm (serum sample 46 TB−): 0.13
ELISA absorbance at 492 nm (serum sample 47 TB−): 0.34*
ELISA absorbance at 492 nm (serum sample 48 TB−): 0.32*
ELISA absorbance at 492 nm (serum sample 49 TB−): 0.38*
ELISA absorbance at 492 nm (serum sample 50 TB−): 0.35*
ELISA absorbance at 492 nm (serum sample 51 TB−): 0.11
ELISA absorbance at 492 nm (serum sample 52 TB−): 0.21
ELISA absorbance at 492 nm (serum sample 53 TB−): 0.16
ELISA absorbance at 492 nm (serum sample 54 TB−): 0.17
ELISA absorbance at 492 nm (serum sample 55 TB−): 0.24
ELISA absorbance at 492 nm (serum sample 56 TB−): 0.68*
ELISA absorbance at 492 nm (serum sample 57 TB−): 0.25
ELISA absorbance at 492 nm (serum sample 58 TB−): 0.25
ELISA absorbance at 492 nm (serum sample 59 TB−): 0.33*
ELISA absorbance at 492 nm (serum sample 60 TB−): 0.37*
ELISA absorbance at 492 nm (serum sample 61 TB−): 0.52*
ELISA absorbance at 492 nm (serum sample 62 TB−): 0.19
ELISA absorbance at 492 nm (serum sample 63 TB−): 0.16
ELISA absorbance at 492 nm (serum sample 64 TB−): 2.50*
